Here are results for five compounds from patent publication US12139474B2, “LPA receptor antagonists and uses thereof” (Gilead Sciences, Inc., priority 2020, dated 2024).

One may read the EC50 as the concentration giving half of the maximal effect.

T1 sequence (Q92633 whole entry): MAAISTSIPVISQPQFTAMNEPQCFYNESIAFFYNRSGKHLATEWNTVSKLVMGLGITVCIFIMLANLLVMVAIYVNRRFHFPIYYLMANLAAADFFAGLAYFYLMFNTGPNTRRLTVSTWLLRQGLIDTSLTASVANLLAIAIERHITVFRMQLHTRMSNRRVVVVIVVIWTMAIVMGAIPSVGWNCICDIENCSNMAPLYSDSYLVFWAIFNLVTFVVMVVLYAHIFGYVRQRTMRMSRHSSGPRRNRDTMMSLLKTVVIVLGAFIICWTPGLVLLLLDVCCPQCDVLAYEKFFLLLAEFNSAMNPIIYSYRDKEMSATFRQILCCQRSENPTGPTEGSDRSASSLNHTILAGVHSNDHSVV

The assay concerns the target T1, human LPAR1 (Homo sapiens, UniProt Q92633).
T1 construct: host or cells: CHO-K1
Put plainly: LPAR1 intracellular calcium mobilization assay (antagonist mode). Particulars: CHO-K1 EDG2 cells expressing human LPAR1; 60 min pre-incubation with compound, then LPA 18:2 at EC80 (100 nM); FLIPR calcium signal. Format: cell-based. As to the method:
In vitro LPAR1 activity was measured in an intracellular calcium mobilization assay.
CHO-K1 EDG2 cells (DiscoverX cat #93-0644C2) expressing human LPAR1 (NM_001401.3) were seeded in a total volume of 25 μL of Dulbecco's Modification of Eagle's Medium (DMEM) with 10% Fetal Bovine Serum, 1× PenStrepGlutamine, 300 ug/ml Hygromycin, and 800 ug/ml G418 into 384-well tissue culture plate (Grenier #781091) at 15,000 cells/well and incubated at 37° C. overnight. Prior to testing, 25 μL Calcium Loading Dye Component A (FLIPR Calcium 6 Assay Kit Molecular Device #R8190) and 2.5 mM Probenecid (Invitrogen #P36400, prepared fresh) in Hank's Balanced Salt Solution (Corning #21-023-CV), 20 mM HEPES (Corning #25-060-CI), 0.1% Bovine Serum Albumin (Sigma-Aldrich #A7906-500G) was add to the cells for 60 minutes at 37° C.
Agonist dose curves of LPA 18:2 (Avanti Polar Lipids cat #857138, 0.5 nM to 10 μM) were recorded to determine the LPA 18:2 EC80 for subsequent antagonist assays. For agonist dose curves, cells were removed from the incubator 2 hours after dye loading and transferred to the FLIPR Tetra instrument (Molecular Devices, San Jose, CA). Calcium mobilization was monitored for 5 min and 10 μL 6× LPA in HBSS/20 mM Hepes/0.1% bovine serum albumin (BSA) was added to the cells 5 seconds into the assay.
To determine the LPAR1 antagonist activity of test compounds, cells were pre-incubated with test compound at a dose range of 0.5 nM to 10 μM, followed by LPA at EC80 concentration (100 nM). After dye loading, cells were removed from the incubator and 0.3 μL of 200× antagonist was added. Cells were incubated for 60 minutes at 37° C. Antagonist activity was measured on a FLIPR Tetra. Calcium mobilization was monitored for 3.5 minutes and 10 μL 6× EC80 LPA in HBSS, 20 mM HEPES, and 0.1% BSA was added to the cells 5 seconds into the assay. Signal amplitude (Maximum minus minimum) values were plotted against log10 of antagonist concentration using Dose Response Tool (Gilead Sciences Inc.) to determine EC50.
To assess the antagonistic potential of exemplified compounds EC50 values were determined for Compounds 1 to 32 in the LPAR1 calcium mobilization assay. The compound numbers correspond to the compound numbers in Examples 1 to 33.
For the compound `C[C@@H](OC(=O)Nc1c(-c2nc3c(cc2F)NC(=O)CO3)nnn1C)c1cccnc1Cl` [Compound 28, (R)-1-(2-chloropyridin-3-yl)ethyl (4-(7-fluoro-2-oxo-2,3-dihydro-1H-pyrido[2,3-b][1,4]oxazin-6-yl)-1-methyl-1H-1,2,3-triazol-5-yl)carbamate], the EC50 stood at 660 nM.

Take `C[C@@H](OC(=O)Nc1c(-c2cc(F)c3c(c2)CCC(=O)N3)nnn1C)c1cccnc1Cl` [Compound 29, (R)-1-(2-chloropyridin-3-yl)ethyl (4-(8-fluoro-2-oxo-1,2,3,4-tetrahydroquinolin-6-yl)-1-methyl-1H-1,2,3-triazol-5-yl)carbamate]: the half-maximal effective concentration (EC50) was 5 nM.

Consider `C[C@@H](OC(=O)Nc1c(-c2ccc3c(n2)OC(C(F)(F)F)C(=O)N3)nnn1C)c1cc(F)cnc1Cl` (stereo partly drawn) [Compound 30, (R)-1-(2-chloro-5-fluoropyridin-3-yl)ethyl (1-methyl-4-(2-oxo-3-(trifluoromethyl)-2,3-dihydro-1H-pyrido[2,3-b][1,4]oxazin-6-yl)-1H-1,2,3-triazol-5-yl)carbamate], for which the half-maximal effective concentration (EC50) was under 5 nM. As to `CC1Oc2nc(-c3nnn(C)c3NC(=O)O[C@H](C)c3cc(F)cnc3Cl)ccc2NC1=O` (stereo partly drawn) [Compound 31, (R)-1-(2-chloro-5-fluoropyridin-3-yl)ethyl (1-methyl-4-(3-methyl-2-oxo-2,3-dihydro-1H-pyrido[2,3-b][1,4]oxazin-6-yl)-1H-1,2,3-triazol-5-yl)carbamate], the EC50 was under 5 nM. With `CC1Oc2nc(-c3nnn(C)c3NC(=O)O[C@H](C)c3cc(F)cnc3F)ccc2NC1=O` (stereo partly drawn) [Compound 32, (R)-1-(2,5-difluoropyridin-3-yl)ethyl (1-methyl-4-(3-methyl-2-oxo-2,3-dihydro-1H-pyrido[2,3-b][1,4]oxazin-6-yl)-1H-1,2,3-triazol-5-yl)carbamate] the figure was 3780 nM.
